pIC50: −log10 of the molar value. Like-named read-outs stand apart in the source and are kept apart here.
Columns and labels:
[1] = tested on: acyclovir-susceptible reference strain SC16; test: Antiviral susceptibility testing by ELISA on HEp-2 cells, strain SC16; type: cell-based, HSV 1
Experimental: (§1) Three HSV 1 reference strains were tested : SC16 (acyclovir-susceptible reference strain; (Hill et al., 1975)), DM21 (acyclovir-resistant reference strain derived from SC16; (Efstathiou et al., 1989)) and TP 2.5 (foscarnet-resistant reference strain derived from SC16; (Larder and Darby, 1985)). Antiviral assays were performed in duplicate on HEp-2 cells seeded in 96 wells microplates. Dilutions of virus and drugs were prepared in E-MEM without FCS. Cells were first treated for 24 hours with MGBG using a series of 6 twofold serial dilutions from 12.5 to 400 μM. Infection was then achieved with 5 tenfold dilutions of cell-associated virus (10^−1 to 10^−5). Each dilution was incubated with a series of 6 concentrations of each antiviral drug (from 12.5 to 400 μM in twofold dilutions for MGBG, from 0.16 to 500 μM in fivefold dilutions for acyclovir and from 31 to 1000 μM in twofold dilutions for foscarnet). […] After incubation at 36° C. with 5% CO2 for 24 hours post-infection, medium was replaced with freshly prepared dilutions of MGBG. Viral multiplication was checked 24 hours afterwards by an ELISA (Morfin et al., 1999), using a rabbit monoclonal anti-HSV 1 antibody (BO 114, Dako) and a protein A peroxidase-conjugated (BioRad). The substrate, 2,2′-azino-di(3-ethyl-benzthiazoline) sulfonic acid (ABTS) diluted in ABTS buffer (Boehringer, Mannheim), was added to each well. After 30 min at room temperature, the plates were briefly agitated and optical densities were read at 405 nm with a multichannel spectrophotomoter (Titertek-Multiskan). Optical density values were used with the Biolise program (Life Sciences International) to calculate the concentration of the drug causing a 50% inhibition of viral replication (IC50) by logistic regression analysis.
(§2) The capacity of MGBG to preclude infection of three HSV-1 acyclovir and/or foscarnet resistant strains was tested. […] The ED values were determined.

[2] = tested on: foscarnet-resistant reference strain TP 2.5; test: Antiviral susceptibility testing by ELISA on HEp-2 cells, strain TP 2.5; type: cell-based, HSV 1; conditions: median of at least three assays, drugs diluted in μM, read-out: Susceptibility of strain TP2.5 (concentration causing 50% inhibition of viral replication, IC50), median
Experimental: as §1, §2

[3] = tested on: acyclovir-resistant reference strain DM21; test: Antiviral susceptibility testing by ELISA on HEp-2 cells, strain DM21; type: cell-based, HSV 1; conditions: for IC50: HEp-2 cells, ELISA, median of at least three assays, drugs diluted in μM, read-out: Susceptibility of strain DM21 (concentration causing 50% inhibition of viral replication, IC50), median
Experimental: as §1
The capacity of MGBG to preclude infection of three HSV-1 acyclovir and/or foscarnet resistant strains was tested. The reference strains used in this study were the SC16 acyclovir-susceptible reference strain, the DM21 acyclovir-resistant reference strain derived from SC16 and the TP 2.5 foscarnet-resistant reference strain derived from SC16 (Efstathiou et al., 1989; Hill et al., 1975; Larder and Darby, 1985). In each experiment, dose response curves were constructed for […], for acyclovir, and for MGBG. The ED values were determined.

[4] = tested on: HSV-1 macroplaque strain (MP); type: cell-based; conditions: 50 μM spermine added with 100 μM MGBG and virus, or 2 h later
Experimental: HEp2 cells were grown as monolayers in Eagle's minimum essential medium (E-MEM) supplemented or not with 5% heat-inactivated foetal calf serum (FCS) and supplemented with 100 U/ml penicillin and 100 U/ml streptomycin. The cells were maintained at 37° C. under 5% CO2. The HSV-1 macroplaque strain (MP), obtained from B. Jacquemont (Lyon, France), was a gift of B. Roizman (Chicago, Ill., U.S.A.), and was used throughout this study. Viruses were grown in HEp2 cells.
HEp2 cells were grown in 6-well plates (˜10^6 cells/well) and infected just before confluence with a multiplicity of infection (m.o.i.) of 0.5 plaque-forming units (PFU) per cell in E-MEM in absence of FCS, except for some experiments. After adsorption of the virus for 1 h at 33° C. under 5% CO2, the medium containing the virus suspension was removed and the cells were washed with E-MEM, then incubated in E-MEM without FCS at 37° C. for different periods of times until harvest. Times post-infection (p.i.) were calculated from the time of addition of the virus suspension. HEp2 cells were exposed to MGBG treatment for different times. When cells were pre-treated with MGBG prior infection, MGBG was added to cell medium 6 h or 24 h prior infection until harvest. In non pre-treated cells, MGBG was added simultaneously with virus suspension, or 2 h, 4 h or 6 h latter. When cells were treated for more than 24 h, medium was replaced every 24 h with fresh medium containing the same concentration of MGBG.
Accordingly, the effect of inactivation of enzymes involved in polyamine biosynthesis upon HSV-1 infection inhibition was assessed. The HSV-1 MP strain was used throughout this study for its ability to induce the formation of large syncytia from infected cells. Therefore, it was possible to easily and quickly investigate the inhibition of viral replication at the level of syncytia formation.
To investigate the effect of the concentration of MGBG on viral infection, HEp2 cells were infected with 0.5 PFU of HSV-1 per cell in FCS free medium in which 10 μM to 300 μM MGBG was added from the adsorption step of the virus until the end of the experiment. After 24 h of infection, the formation of syncytia was observed, and the number of syncytia was estimated by counting using the optical microscope.
HEp2 cell were pre-treated with MGBG by incubation in FCS free medium containing 10 to 300 μM MGBG 6h to 24 h before infection. Then cells were infected as described above and MGBG was maintained in the medium until the end of the experiment.

[5] = tested on: HSV-1 proteins, mRNA and DNA; test: Levels of viral proteins (Western blot), mRNA and DNA (slot blot) in infected HEp2 cells; type: cell-based; conditions: 6 h pre-treatment with 100 μM MGBG, then MGBG and 50 μM spermine, 24 h p.i.
Experimental: Total RNA and DNA from control mock-infected and infected HEp2 cells were purified using Qiagen RNA/DNA kit. RNA were submitted to DNAse/RNAse free digestion (1.5 unit/μg RNA) and DNA were submitted to RNAse A digestion (10 units/μg). Quantitation of SAMDC mRNA, of viral mRNAs and viral DNA present in each sample was determined by slot blot analysis using the 1250 bp PstI/PvuII fragment of pSAMr1 plasmid (Pajunen et al., 1988). The 746 bp SalI-EcoNI fragment of pSG28 and the 1308 bp MluI fragment of pSG124 plasmids (Goldin et al., 1981) were labelled with [^32P] and used as probes to detect the immediate early ICP27 and the early UL42 mRNAs respectively. Us11 late mRNA was detected with [^32P]-labelled probe composed of the 230 bp XhoI fragment of pHSV-Us12 plasmid (Diaz et al., 1996). Viral DNA was detected using the ICP27 specific DNA probe.
Mock-infected and HSV-1-infected HEp2 cells were washed three times with ice cold phosphate-buffered saline (PBS) (130 mM NaCl, 4 mM Na2HPO4.2H2O, 1.5 mM KH2PO4), scrapped into PBS, and collected by centrifugation at 500×g. Cells were resuspended in Laemmli buffer (Laemmli, 1970). Proteins were resolved by polyacrylamide gel electrophoresis and transferred by electroblotting onto a polyvinylidene difluoride membrane (Immobilon-P; Millipore). Viral proteins were analysed by Western blots (10 μg aliquots) using a 50 fold dilution of either a rabbit polyclonal anti-ICP27 antibody, or a rabbit polyclonal anti-Us11 antibody (Diaz et al., 1993), or a mouse monoclonal anti-UL42 antibody diluted 50 fold.
Cells were pre-treated with 10 to 200 μM of MGBG, then infected with HSV-1 in the presence of the same concentrations of MGBG. Proteins, RNA and DNA were extracted from cells infected for 24 h. Viral proteins were detected by Western blot using specific antibodies, whereas viral mRNA and DNA levels were assayed by slot blot analysis.

[6] = target: T1, SAMDC (Rattus norvegicus, UniProt P17708); test: SAMDC inhibition in vitro; type: biochemical; conditions: inhibitor at 0.1 μM
T1 construct: according to the procedure described in Pegg A E, Poso H, S-adenosylmethionine decarboxylase (rat liver), Methods Enzymol; 1983;94: 234-239; from tissue
T1 sequence (P17708 68-333 limits assumed): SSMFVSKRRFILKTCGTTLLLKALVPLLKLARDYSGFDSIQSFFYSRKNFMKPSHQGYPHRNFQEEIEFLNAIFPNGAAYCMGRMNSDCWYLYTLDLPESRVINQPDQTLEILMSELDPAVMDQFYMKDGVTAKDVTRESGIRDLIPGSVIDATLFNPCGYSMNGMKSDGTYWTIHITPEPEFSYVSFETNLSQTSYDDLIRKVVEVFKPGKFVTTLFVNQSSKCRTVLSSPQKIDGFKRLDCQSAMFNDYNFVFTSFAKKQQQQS
T1 sequence (P17708 1-67 limits assumed): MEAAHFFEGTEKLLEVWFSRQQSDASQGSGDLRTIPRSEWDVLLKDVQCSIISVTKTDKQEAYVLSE
From the text: The results of SAMDC inhibition in vitro and of HSV replications in cellulo for MGBG and Compounds (I) to (III) disclosed above are reported in the table below.

[7] = tested on: HSV; test: HSV replication in cellulo; type: cell-based; conditions: read-out: HSV inhibition in cellulo IC50
Experimental: as §1

Structure (SMILES)	IC50 [2] [µM]	IC50 [3] [µM]	% inhibition in vitro (0.1 μM) [6] [%]	pIC50 [7]	further results
Nc1nc2c(ncn2COCCO)c(=O)[nH]1 [Acyclovir, acyclovir]	215	> 500			IC50 ([1]; HEp-2 cells, ELISA, median of at least three assays, drugs diluted in μM, read-out: Susceptibility of strain SC16 (concentration causing 50% inhibition of viral replication, IC50), median): 28 µM
NCCCNCCCCNCCCN [spermine]					MGBG inhibition of viral infection on addition of exogenous spermine [4]: totally prevented; MGBG-induced viral inhibition in the presence of exogenous spermine [5]: abolished the MGBG-induced viral inhibition
CC(NNC(=N)N)c1cccc(C(=N)N)n1 (centres unmarked) [Compound (III)]					inhibition at 0.1 µM [6]: 97%
O=C(O)P(=O)(O)O [Foscarnet, foscarnet]	> 1000	148			pIC50 ([1]; HEp-2, read-out: Susceptibility of strain SC16 (concentration causing 50% inhibition of viral replication, IC50), median): 3.65; decreased IC50 on acyclovir-resistant strains versus acyclovir-susceptible strain ([3]; compared with SC16): 34%
N=C(N)c1ccc(/N=N/Nc2ccc(C(=N)N)cc2)cc1 [Compound (I), Berenil]			47	4.15	
N=C(N)c1cccc2c1CC/C2=N\N=C(N)N [Compound (II), SAM486A]			97	4.33	

Reference: patent publication US20070059299A1, “S-adenosyl methionine decarboxylase inhibition for the treatment of a herpes simplex virus infection” (Institut National de la Sante et de la Recherche Medicale …, priority 2002, published 2007)
